Measurements taken from US20260232666A1, “COMPOSITIONS AND METHODS FOR INHIBITION OF RAS” (TheRas, Inc., priority 2023, published 2026).

Key:
[1] = biological target: T1, GppNHp-loaded KRAS4b (amino acids 1-169) G12C/C118S protein (Homo sapiens, UniProt P01116, C118S/G12C); assay: Covalent cysteine 12 modification by MALDI-TOF MS, GppNHp-loaded KRAS G12C; format: binding; settings: 15 minutes reaction time point
T1 construct: KRAS4b (amino acids 1-169) G12C/C118S protein; made in house
Method: (§1) Biological Example 1: Covalent Cysteine 12 Modification Analysis Using Matrix Assisted Laser Desorption Ionization-Time of Flight Mass Spectrometry (MALDI-TOF MS)
(§2) MALDI-TOF MS analysis was performed using 1 μM protein (KRAS G12C), and 1:2.5 protein to compound ratio.
(§3) Reaction: 1 μM of GppNHp, GTP, or GDP-loaded KRAS4b (amino acids 1-169) G12C/C118S protein (produced in-house by Protein Expression Laboratory, FNLCR/Leidos Biomed) in 20 mM 4-(2-hydroxyethyl)-1-piperazineethanesulfonic acid (HEPES) buffer containing 150 mM NaCl, 1 mM MgCl2, pH 7.3 was prepared freshly before assay. Twelve-μL aliquots of protein were dispensed onto low volume 384-well plate, then 30 nL of tested compounds from 1 mM DMSO stocks were added to appropriate wells using ECHO 555 acoustic liquid handler (Labcyte Inc.). For each reaction/assay, three blanks were prepared by mixing 12 μL of protein solution with 30 nL DMSO. The contents of the wells were carefully mixed by aspiration, and then each plate was sealed with an adhesive cover, centrifuged at 2000 g for 1 minute, and kept in the dark at room temperature until 5 min, 15 min, 30 min, 2 h, or 6 h collections.
(§4) Target pretreatment: Before each assay MALDI target (Bruker MPT 384 ground steel BC) was pre-treated by pipetting on each spot 0.75 μL of saturated sinapinic acid in acetonitrile (ACN).
(§5) Sample preparation: At collection time point, 2 μL of reaction mixtures were pipetted out into 15 μL MALDI matrix solution (saturated solution of sinapinic acid in 1:1 ACN:water solution containing 0.75% trifluoroacetic acid (TFA)) deposited on 384 well polypropylene plate. Resulting solution was mixed by aspiration, centrifuged at 2000 g for 1 minute, then 1.5 μL aliquots were dispensed on pre-treated MALDI target using Beckman Coulter Biomek FXP 96/384-Span-8 Laboratory Automation Workstation. Finally, the MALDI target was dried under mild vacuum to produce spots with fine crystalline structure.
(§6) Measurements: MALDI-TOF measurements were performed on a Bruker Daltonics rapiflex Tissuetyper TOF-TOF mass spectrometer using linear mode and mass range from 18.6 to 21.6 kDa. Detector gain was set to 3.3×(483 V), sample rate to 5 GS/s, real time smoothing to medium (175 MHz), laser smart beam pattern was set to: “MS Thin Layer M5”, and the laser frequency was 10000 Hz. Spectra were automatically collected using custom AutoXecute method. Laser power was auto adjusted using fuzzy control. The peak selection range was set to be between 19000 and 21500 Da. Peak evaluation uses half width parameter set to be smaller than 40 Da for processed spectrograms (centroid peak detection; smoothed by SavitzkyGolay algorithm using 7 m/z width and 2 cycles; baseline was subtracted using median algorithm with flatness 1 and median level 0.01). Fuzzy control used Proteins/Oligonucleotides protocol with minimum half width 1/10 times above threshold. Up to 40000 satisfactory shots were collected in 10000 shot steps. Dynamic termination was implemented to finish data collection when peak signal/noise ratio was reaching value of 50.
(§7) Spectra processing: Spectra were smoothed by SavitzkyGolay algorithm using 7 m/z width and three cycles. Centroid peak detection algorithm was used with signal to noise threshold set to 6, relative intensity threshold 4%, peak width 10 m/z and median baseline subtraction using flatness of 1 and median level of 0.01. Peak intensity and area under the peak were evaluated and recorded for all peaks between 19,300 Da and 21,550 Da.
(§8) Calculation of percent modification: Percent modification was calculated as a ratio of peak height for protein modified by compound to sum of peak height of remaining protein plus peak height for protein modified by compound. If multiple modifications were observed each was calculated as a ratio of peak height for given modification versus sum of peak heights for all observed protein species. Data reported in Table 4 are from 15 minutes reaction time point. […]

[2] = biological target: T2, GTP-loaded KRAS4b (amino acids 1-169) G12C/C118S protein (Homo sapiens, UniProt P01116, C118S/G12C); assay: Covalent cysteine 12 modification by MALDI-TOF MS, GTP-loaded KRAS G12C; format: binding; settings: 15 minutes reaction time point
T2 construct: KRAS4b (amino acids 1-169) G12C/C118S protein; made in house
Method: as §1, §2, §3, §4, §5, §6, §7, §8

[3] = biological target: T3, GDP-loaded KRAS4b (amino acids 1-169) G12C/C118S protein (Homo sapiens, UniProt P01116, C118S/G12C); assay: Covalent cysteine 12 modification by MALDI-TOF MS, GDP-loaded KRAS G12C; format: binding; settings: 15 minutes reaction time point
T3 construct: KRAS4b (amino acids 1-169) G12C/C118S protein; made in house
Method: as §1, §2, §3, §4, §5, §6, §7, §8

[4] = test system: pERK in NCI-H358 cells; assay: Cell-based pERK HTRF assay (pERK inhibition in H358 cells); settings: 30 min incubation
Method: Biological Example 3: Cell-Based pERK HTRF Assay
pERK assays (Perkin Elmer) were used to determine the effectiveness of compounds of the present disclosure in disrupting KRAS G12C protein/effector signaling in cells.
On Day 1, cells (NCI-H358) were seeded into 96-well plates at 4×10^4 cells/well in complete growth media (RPMI, 10% FBS).
On Day 2, cells were treated with compounds at 0.25% DMSO. The source plate was created with compounds diluted in media at 5-fold the final assay concentration. The compounds were run in a 9-point concentration curve starting at 75 μM, with a 3-fold dilution between concentrations. 20 μL was transferred onto the cell plates (final volume in wells was 100 μL). Plates were harvested after 30 min incubation by aspirating media and adding kit-supplied 1× supplemented lysis buffer to all wells (75 μl per well). Plates were then placed on a plate shaker and incubated at 850 rpm for an additional 30 min.
Antibody mixture solution was prepared by diluting aliquoted d2 and Eu Cryptate antibodies 1:20 in kit supplied detection buffer, then mixed the diluted antibodies solutions (1:1 v:v). 4 μL of this solution was then added to a 384-well detection plate (Perkin Elmer; 6008230).
Samples were homogenized by pipetting up and down and then transferred (16 μL of cell lysates) from the 96-well cell culture plate to two wells of the HTRF 384-well detection plate containing the antibody solution. Plates were centrifuged (524 g for […]) and allowed to incubate between 4 and 24 h at room temperature. Maximum signal is reached after 4 h incubation time and remains stable over a period of 24 hours. Therefore, readings can be made between 4 and 24 h of incubation. Plates were centrifuged again (524 g for 1 min), and analyzed on the En Vision plate reader using the following settings: Excitation 320 nm, Bandwidth 75 nm; Emission 615 nm, Bandwidth 85 nm; Gain 100%; Flashes 100; Lag 60 μs.
The percent of modification of GppNHp, GTP, or GDP loaded KRAS G12C by MALDI-TOF MS, biochemical Raf1 RBD-KRAS G12C-GppNHp disruption assay IC50, and pERK inhibition IC50 of selected compounds described herein are shown in Table 4. For percent of modification at 15 minutes (MALDI-TOF MS) of GppNHp, GTP, or GDP loaded KRAS G12C: A: percent of modification ≥70%; B: 50≤percent of modification <70%; C: 10%≤percent of modification <50%; D: percent of modification <10%. […] For pERK inhibition in H358 cell assay: A: IC50≤0.1 μM; B: 0.1 μM<IC50≤1 μM; C: IC50>1 μM. Blanks in the table represent that compound was not tested in the indicated assay.

SMILES	GppNHp-KRAS G12C percent of modification [1]	GTP-KRAS G12C percent of modification [2]	GDP-KRAS G12C percent of modification [3]	IC50 ([4]; Homo sapiens, NCI-H358, 0.5 h)	IC50 [4]
C[C@@H]1[C@H](N(C)c2nc(OC[C@@]34CCCN3C[C@H](F)C4)nc3c(F)c(-c4ccc(F)c5sc(N)c(C#N)c45)c(C(F)(F)F)cc23)CCN1C(=O)[C@@H](F)Cl (atropisomer, axis not shown) [Compound 184]	D (percent of modification <10%)	D (percent of modification <10%)	D (percent of modification <10%)	100 to 1000 nM	
C=CC(=O)N1CC[C@@H](N(C)c2nc(OC[C@@H]3CC(=C(F)F)CN3C)nc3c(F)c(-c4ccc(F)c5sc(N)c(C#N)c45)c(Cl)cc23)[C@H]1C [Compound 202]	B (50≤percent of modification <70%)	C (10%≤percent of modification <50%)	B (50≤percent of modification <70%)	100 to 1000 nM	
C=CC(=O)N1CC[C@@H](N(C)c2nc(O[C@@H](C)[C@@H]3C[C@@H](OC)CN3C)nc3c(F)c(-c4ccc(F)c5sc(N)c(C#N)c45)c(Cl)cc23)[C@H]1C [Compound 194]	A (percent of modification ≥70%)	A (percent of modification ≥70%)	A (percent of modification ≥70%)	< 100 nM	
C[C@@H]1[C@H](N(C)c2nc(OC[C@@]34CCCN3C[C@H](F)C4)nc3c(F)c(-c4ccc(F)c5sc(N)c(C#N)c45)c(C(F)(F)F)cc23)CCN1C(=O)[C@@H](F)Cl (atropisomer, axis not shown) [Compound 185]	A (percent of modification ≥70%)	A (percent of modification ≥70%)	A (percent of modification ≥70%)		< 100 nM
C=CC(=O)N1CC[C@@H](N(C)c2nc(OC[C@@H]3C(=C(F)F)CCN3C)nc3c(F)c(-c4ccc(F)c5sc(N)c(C#N)c45)c(C(F)(F)F)cc23)[C@H]1C [Compound 199]	C (10%≤percent of modification <50%)	C (10%≤percent of modification <50%)	C (10%≤percent of modification <50%)	< 100 nM	
C=CC(=O)N1CC[C@@H](N(C)c2nc(O[C@@H](C)[C@@H]3C(=C)CCN3C)nc3c(F)c(-c4ccc(F)c5sc(N)c(C#N)c45)c(C(F)(F)F)cc23)[C@H]1C [Compound 203]	A (percent of modification ≥70%)	A (percent of modification ≥70%)	A (percent of modification ≥70%)	< 100 nM	
C=CC(=O)N1CC[C@@H](N(C)c2nc(O[C@@H](C)[C@@H]3C(=C(F)F)CCN3C)nc3c(F)c(-c4ccc(F)c5sc(N)c(C#N)c45)c(Cl)cc23)[C@H]1C [Compound 201]	B (50≤percent of modification <70%)	C (10%≤percent of modification <50%)	B (50≤percent of modification <70%)	100 to 1000 nM	
C=CC(=O)N1CC[C@@H](N(C)c2nc(O[C@@H](C)[C@@H]3[C@@H](OC)CCN3C)nc3c(F)c(-c4ccc(F)c5sc(N)c(C#N)c45)c(Cl)cc23)[C@H]1C [Compound 195]	A (percent of modification ≥70%)	A (percent of modification ≥70%)	A (percent of modification ≥70%)	< 100 nM	
C[C@@H]1CN(c2nc(OC[C@@]34CCCN3C[C@H](F)C4)nc3c(F)c(-c4ccc(F)c5sc(N)c(C#N)c45)c(Cl)cc23)[C@@H](C)CN1C(=O)/C=C/c1nc(C(C)(F)F)no1 [Compound 191]	B (50≤percent of modification <70%)	B (50≤percent of modification <70%)	B (50≤percent of modification <70%)	100 to 1000 nM	
CO[C@@H]1C[C@@H](COc2nc(N(C)[C@@H]3CCN(C(=O)/C=C/c4nc(C(C)(F)F)no4)[C@@H]3C)c3cc(C(F)(F)F)c(-c4ccc(F)c5sc(N)c(C#N)c45)c(F)c3n2)N(C)C1 [Compound 189]	B (50≤percent of modification <70%)	C (10%≤percent of modification <50%)	B (50≤percent of modification <70%)	< 100 nM	
CCN(c1nc(OC[C@@]23CCCN2C[C@H](F)C3)nc2c(F)c(-c3ccc(F)c4sc(N)c(C#N)c34)c(C(F)(F)F)cc12)[C@H]1CCN(C(=O)[C@@H](F)Cl)C1 [Compound 186]	C (10%≤percent of modification <50%)	B (50≤percent of modification <70%)	C (10%≤percent of modification <50%)	< 100 nM	
C=CC(=O)N1CC[C@@H](N(C)c2nc(O[C@@H](C)[C@@H]3[C@@H](OC)CCN3C)nc3c(F)c(-c4ccc(F)c5sc(N)c(C#N)c45)c(C(F)(F)F)cc23)[C@H]1C [Compound 193]	A (percent of modification ≥70%)	A (percent of modification ≥70%)	A (percent of modification ≥70%)	< 100 nM	
